Data from ChEMBL document CHEMBL1201862, “PubChem BioAssay data set” (2004).
Activity calls are given as the source filed them.

Key:
[1] = target: T1, Oxysterols receptor LXR-beta (Homo sapiens, UniProt P55055); type: functional, cell-based;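 also: agonist activity at LXR measured by a cell-based luminescence readout across a dose range, run as a counterscreen for daf-12 agonists; HEK293 cells with Gal4-LXR fusion and GAL4-driven luciferase reporter; potency for activation of Gal4-LXR reporter so compounds are agonists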
T1 sequence (P55055 whole entry): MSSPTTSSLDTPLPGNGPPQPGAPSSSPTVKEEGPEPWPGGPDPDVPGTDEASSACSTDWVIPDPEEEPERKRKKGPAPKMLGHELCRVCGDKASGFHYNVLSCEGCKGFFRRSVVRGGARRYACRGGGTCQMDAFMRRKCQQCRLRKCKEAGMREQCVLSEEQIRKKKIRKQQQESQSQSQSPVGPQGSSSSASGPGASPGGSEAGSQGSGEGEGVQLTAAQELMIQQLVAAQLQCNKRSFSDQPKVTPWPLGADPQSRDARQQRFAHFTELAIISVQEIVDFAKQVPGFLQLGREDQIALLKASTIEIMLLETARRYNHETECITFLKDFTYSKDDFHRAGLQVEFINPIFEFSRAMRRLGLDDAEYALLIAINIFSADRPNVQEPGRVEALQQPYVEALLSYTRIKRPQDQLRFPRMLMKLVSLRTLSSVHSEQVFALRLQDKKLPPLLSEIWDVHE

[2] = A549 lung cell viability reduction – CellTiter-Glo luminescence, cherry-pick, cytotoxicity control, dose response (AID 743484); type: functional, cell-based
cells [3] = details: HEK293
cells [4] = details: A549
[5] = Luminescence Cell-Based Dose Retest to Confirm Inhibitors of Cancer Stem Cells. [Related pubchem assays (depositor defined):AID2717, AID2721]; type: functional; details: Homo sapiens
[6] = viability loss in HepG2 liver cells – cell-based, ATP luminescence, cherry-pick, set 6, cytotoxicity control, dose response (AID 1053125); type: functional
CAAX prenyl protease 2 = CAAX prenyl protease 2 (Saccharomyces cerevisiae S288c, UniProt Q03530); type: biochemical
[7] = activation of miR-122 Renilla sensor silencing – cell-based, Huh7 psiCHECK-miR122, Renilla luciferase, cherry-picked, dose response (AID 651956); type: functional;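 also: huh7 hepatoma cells stably carrying a psiCHECK-2 miR-122 sensor plasmid; renilla luciferase signal reporting endogenous miR-122 activity after 48 h compound exposure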
[8] = general mammalian cell viability loss – activator set, cherry-pick, cytotoxicity control for miR-122 modulator project, dose response (AID 720690); type: functional, cell-based;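 also: HEK293T human cells scored for general mammalian cytotoxicity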
[9] = OVCAR8 cell viability loss – plate reader, dry powder samples, PAX8 project, dose response (AID 743197); type: functional, cell-based; details: OVCAR-8
Paired box protein Pax-8 = Paired box protein Pax-8 (Homo sapiens, UniProt Q06710); test: PAX8 transcriptional activity inhibition in RMG-I – RMG-I cells, luciferase, cherry-pick, dose response (AID 687027); type: functional, cell-based;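 also: luciferase reporter driven by Pax8 target thyroperoxidase promoter measured by SteadyGlo luminescence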
[10] = target: Metabotropic glutamate receptor 5 (Rattus norvegicus, UniProt P31424); test: Identification of a glycine sulfonamide based non-MPEP site positive allosteric potentiator (PAM) of mGlu5 (calcium_assay).; type: functional
[11] = target: Muscarinic acetylcholine receptor M5 (Homo sapiens, UniProt P08912); test: potentiation of ACh response at human M5 – cell-based, concentration-response curve, dose response (AID 651878); type: functional
[12] = Late stage assay provider results from the probe development effort to identify selective inhibitors of heat shock protein 90 (HSP90): Absorbance-based cell proliferation assay in SKBR3 cells.; type: functional; details: SK-BR-3
[13] = Late stage assay provider results from the probe development effort to identify selective inhibitors of heat shock protein 90 (HSP90): Absorbance-based cell proliferation assay in MCF7 cells.; type: functional
[14] = Late-stage results from the probe development effort to identify antagonists of arginine vasopressin receptor 1a (AVPR1a): fluorescence-based cell-based dose response OXTR inhibition counterscreen assay.; type: functional
Vasopressin V2 receptor = Vasopressin V2 receptor (Homo sapiens, UniProt P30518); test: Late-stage results from the probe development effort to identify antagonists of arginine vasopressin receptor 1a (AVPR1a): fluorescence-based cell-based dose response AVPR2 inhibition counterscreen assay.; type: functional
Vasopressin V1b receptor = Vasopressin V1b receptor (Homo sapiens, UniProt P47901); test: Late-stage results from the probe development effort to identify antagonists of arginine vasopressin receptor 1a (AVPR1a): fluorescence-based cell-based dose response AVPR1b inhibition counterscreen assay.; type: functional
[15] = Late-stage results from the probe development effort to identify antagonists of arginine vasopressin receptor 1a (AVPR1a): fluorescence-based cell-based dose response AVPR1a inhibition assay.; type: functional
[16] = target: NAD-dependent protein deacylase sirtuin-5, mitochondrial (Homo sapiens, UniProt Q9NXA8); test: blockers of sirtuin-5 peptide desuccinylation – biochemical, fluorescence imaging, cherry-pick, set 6, dose response (AID 720597)
[17] = cytotoxicity in MITF-independent A375 cells – cell-based, CellTiter-Glo luminescence, dry powder, set 4, counter-screen for MITF inhibitor project, dose response (AID 624364); type: functional; details: A-375;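 also: A375 melanoma cells are MITF independent so this is a counter screen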
[18] = viability loss in MITF-independent A375 cells – cell-based, CellTiter-Glo luminescence, dry powder, set 2, counter-screen for MITF inhibitor project, dose response (AID 624489); type: functional; details: A-375;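 also: actives are compounds lowering A375 viability meaning general cytotoxicity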
cells [19] = type: functional, cell-based
cells [20] = type: functional, cell-based; remark: listed apart in the source
[21] = viability loss in HepG2 hepatoma cells – cell-based, ATP luminescence, cherry-pick, activator set 2, cytotoxicity control, dose response (AID 1053143); type: functional
[22] = target: T2, Apoptotic protease-activating factor 1 (Homo sapiens, UniProt O14727); type: functional
T2 sequence (O14727 whole entry): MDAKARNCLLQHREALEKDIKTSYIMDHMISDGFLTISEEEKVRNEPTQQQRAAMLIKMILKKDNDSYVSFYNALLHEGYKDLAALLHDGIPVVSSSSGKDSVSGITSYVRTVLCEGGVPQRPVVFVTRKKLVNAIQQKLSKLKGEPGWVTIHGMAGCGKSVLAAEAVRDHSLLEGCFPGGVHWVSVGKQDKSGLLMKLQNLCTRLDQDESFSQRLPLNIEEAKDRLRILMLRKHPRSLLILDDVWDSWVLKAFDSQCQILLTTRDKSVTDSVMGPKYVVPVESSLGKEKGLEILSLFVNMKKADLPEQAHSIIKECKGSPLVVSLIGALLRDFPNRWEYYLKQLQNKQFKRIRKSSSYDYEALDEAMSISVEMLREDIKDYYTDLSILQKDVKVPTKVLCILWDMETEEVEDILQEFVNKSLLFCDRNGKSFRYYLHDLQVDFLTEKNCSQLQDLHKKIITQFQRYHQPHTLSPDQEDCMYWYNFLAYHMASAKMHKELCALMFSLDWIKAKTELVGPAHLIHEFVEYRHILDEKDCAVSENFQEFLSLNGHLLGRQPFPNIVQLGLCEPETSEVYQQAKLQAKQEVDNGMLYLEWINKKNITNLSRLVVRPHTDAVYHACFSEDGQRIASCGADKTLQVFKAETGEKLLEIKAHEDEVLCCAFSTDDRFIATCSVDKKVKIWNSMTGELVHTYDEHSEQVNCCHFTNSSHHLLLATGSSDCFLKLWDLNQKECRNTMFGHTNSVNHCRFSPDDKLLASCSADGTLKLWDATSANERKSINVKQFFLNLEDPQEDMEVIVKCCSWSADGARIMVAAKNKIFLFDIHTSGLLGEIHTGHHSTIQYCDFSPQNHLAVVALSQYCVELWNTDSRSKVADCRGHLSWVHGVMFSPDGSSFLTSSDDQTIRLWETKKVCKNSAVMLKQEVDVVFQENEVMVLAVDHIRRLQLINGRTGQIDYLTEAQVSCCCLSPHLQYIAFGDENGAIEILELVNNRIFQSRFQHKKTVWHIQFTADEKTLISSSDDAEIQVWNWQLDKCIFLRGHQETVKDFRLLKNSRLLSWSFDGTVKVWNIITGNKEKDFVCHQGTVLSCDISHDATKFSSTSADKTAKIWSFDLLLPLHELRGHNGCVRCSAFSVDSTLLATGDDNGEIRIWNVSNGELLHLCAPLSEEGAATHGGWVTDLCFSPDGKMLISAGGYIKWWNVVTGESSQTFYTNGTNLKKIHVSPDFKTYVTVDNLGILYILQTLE

Protein RecA = target: T3, Protein RecA (Mycobacterium tuberculosis, UniProt P9WHJ3); test: Fluorescence Cell-Free Homogeneous Dose Retest to Identify Inhibitors of RecA-Intein Splicing Activity. [Related pubchem assays (depositor defined):AID2097, AID2223, AID489010, AID492950]; type: functional
T3 sequence (P9WHJ3 whole entry): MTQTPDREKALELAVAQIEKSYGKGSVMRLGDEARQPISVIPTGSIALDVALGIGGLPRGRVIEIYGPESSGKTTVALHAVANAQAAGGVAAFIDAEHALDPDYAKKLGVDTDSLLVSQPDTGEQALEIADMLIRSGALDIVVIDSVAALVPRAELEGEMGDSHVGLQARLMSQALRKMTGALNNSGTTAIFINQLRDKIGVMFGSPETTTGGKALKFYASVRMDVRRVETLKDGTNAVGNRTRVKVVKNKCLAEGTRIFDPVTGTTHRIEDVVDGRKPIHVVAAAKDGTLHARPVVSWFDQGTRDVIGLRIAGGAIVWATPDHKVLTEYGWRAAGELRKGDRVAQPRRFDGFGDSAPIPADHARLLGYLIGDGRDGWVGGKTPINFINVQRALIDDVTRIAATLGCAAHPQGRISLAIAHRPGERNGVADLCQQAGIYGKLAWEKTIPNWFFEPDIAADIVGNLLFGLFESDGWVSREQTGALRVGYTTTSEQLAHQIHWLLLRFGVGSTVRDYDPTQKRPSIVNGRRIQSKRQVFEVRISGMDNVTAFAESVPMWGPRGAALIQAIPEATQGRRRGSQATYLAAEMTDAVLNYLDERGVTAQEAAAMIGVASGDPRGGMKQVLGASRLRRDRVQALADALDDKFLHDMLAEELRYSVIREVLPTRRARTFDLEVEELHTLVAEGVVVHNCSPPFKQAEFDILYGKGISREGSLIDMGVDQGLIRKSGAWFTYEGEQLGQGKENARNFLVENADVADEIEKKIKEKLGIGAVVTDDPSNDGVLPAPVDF

[23] = target: T4, Replicative DNA helicase DnaB (Mycobacterium tuberculosis, UniProt P9WMR3); test: DnaB intein splicing inhibitors, dose response, biochemical, cell-free fluorescence (AID 449749); type: functional
T4 sequence (P9WMR3 whole entry): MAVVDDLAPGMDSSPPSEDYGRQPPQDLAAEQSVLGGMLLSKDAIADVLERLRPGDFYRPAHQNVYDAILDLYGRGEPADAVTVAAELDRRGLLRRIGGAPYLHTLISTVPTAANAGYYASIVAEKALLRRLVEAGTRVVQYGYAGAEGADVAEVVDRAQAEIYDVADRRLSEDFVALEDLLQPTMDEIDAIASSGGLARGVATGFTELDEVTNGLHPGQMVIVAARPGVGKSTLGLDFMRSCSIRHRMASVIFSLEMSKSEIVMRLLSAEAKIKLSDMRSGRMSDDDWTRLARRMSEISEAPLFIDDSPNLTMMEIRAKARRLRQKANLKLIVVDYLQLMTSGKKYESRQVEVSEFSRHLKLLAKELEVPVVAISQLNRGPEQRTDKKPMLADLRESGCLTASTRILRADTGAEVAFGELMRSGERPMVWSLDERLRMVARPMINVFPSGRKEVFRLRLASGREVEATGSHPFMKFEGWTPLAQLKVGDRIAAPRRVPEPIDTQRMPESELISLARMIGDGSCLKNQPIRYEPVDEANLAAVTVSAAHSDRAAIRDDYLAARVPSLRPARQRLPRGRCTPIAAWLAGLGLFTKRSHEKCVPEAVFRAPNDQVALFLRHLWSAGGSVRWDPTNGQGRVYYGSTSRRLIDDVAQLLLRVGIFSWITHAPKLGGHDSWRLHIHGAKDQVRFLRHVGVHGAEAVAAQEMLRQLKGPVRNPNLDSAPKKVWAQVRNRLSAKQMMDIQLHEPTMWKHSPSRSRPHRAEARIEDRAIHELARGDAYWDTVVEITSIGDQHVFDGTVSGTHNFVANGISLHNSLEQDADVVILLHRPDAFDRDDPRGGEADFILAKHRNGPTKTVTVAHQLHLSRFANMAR

[24] = target: Tyrosyl-DNA phosphodiesterase 2 (Homo sapiens, UniProt O95551); test: potency against TDP2 phosphodiesterase activity – biochemical, epi absorbance, IC50, dose response (AID 743297)
[25] = target: Mitochondrial peptide methionine sulfoxide reductase (Bos taurus, UniProt P54149); type: functional;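 also: absorbance read-out, biochemical high-throughput dose-response screen for MsrA inhibitors, confirmatory; recombinant bovine MsrA coupled to E. coli TrxB with NADPH and selenocystamine; potency is for inhibitors of MsrA activity on DMSO substrate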
Chain of Mitochondrial peptide methionine sulfoxide reductase (P54149 whole entry): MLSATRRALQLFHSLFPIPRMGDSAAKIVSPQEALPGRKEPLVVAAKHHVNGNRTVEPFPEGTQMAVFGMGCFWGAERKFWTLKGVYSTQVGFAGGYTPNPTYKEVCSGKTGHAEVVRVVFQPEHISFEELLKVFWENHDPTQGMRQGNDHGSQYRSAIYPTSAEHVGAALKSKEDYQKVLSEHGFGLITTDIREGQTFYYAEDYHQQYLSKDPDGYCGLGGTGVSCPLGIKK

Chain of NAD-dependent protein deacylase sirtuin-5, mitochondrial (Q9NXA8 whole entry): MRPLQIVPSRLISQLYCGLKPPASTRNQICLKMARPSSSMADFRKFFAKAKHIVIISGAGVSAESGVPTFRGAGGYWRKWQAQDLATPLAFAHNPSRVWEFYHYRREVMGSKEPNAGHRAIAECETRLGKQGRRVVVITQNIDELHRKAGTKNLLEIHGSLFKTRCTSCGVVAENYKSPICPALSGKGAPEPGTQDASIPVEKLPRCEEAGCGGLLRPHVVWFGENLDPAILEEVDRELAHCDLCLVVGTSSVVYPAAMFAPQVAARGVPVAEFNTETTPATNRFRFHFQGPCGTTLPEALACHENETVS
Chain of Muscarinic acetylcholine receptor M5 (P08912 whole entry): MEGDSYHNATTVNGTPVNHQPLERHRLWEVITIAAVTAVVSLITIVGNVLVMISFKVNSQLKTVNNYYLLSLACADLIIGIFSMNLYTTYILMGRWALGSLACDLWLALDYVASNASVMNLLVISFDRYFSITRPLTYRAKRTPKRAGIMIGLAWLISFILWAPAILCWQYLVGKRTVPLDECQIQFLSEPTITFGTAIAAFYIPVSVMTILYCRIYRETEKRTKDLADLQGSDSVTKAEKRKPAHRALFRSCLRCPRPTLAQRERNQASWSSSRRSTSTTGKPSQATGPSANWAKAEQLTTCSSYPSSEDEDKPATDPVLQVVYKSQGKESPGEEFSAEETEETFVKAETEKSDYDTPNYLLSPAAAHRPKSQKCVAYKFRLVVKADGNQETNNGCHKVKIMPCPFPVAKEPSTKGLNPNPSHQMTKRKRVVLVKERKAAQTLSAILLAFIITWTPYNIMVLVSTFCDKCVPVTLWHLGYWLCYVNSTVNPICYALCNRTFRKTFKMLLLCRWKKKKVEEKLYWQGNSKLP
Chain of Vasopressin V1b receptor (P47901 whole entry): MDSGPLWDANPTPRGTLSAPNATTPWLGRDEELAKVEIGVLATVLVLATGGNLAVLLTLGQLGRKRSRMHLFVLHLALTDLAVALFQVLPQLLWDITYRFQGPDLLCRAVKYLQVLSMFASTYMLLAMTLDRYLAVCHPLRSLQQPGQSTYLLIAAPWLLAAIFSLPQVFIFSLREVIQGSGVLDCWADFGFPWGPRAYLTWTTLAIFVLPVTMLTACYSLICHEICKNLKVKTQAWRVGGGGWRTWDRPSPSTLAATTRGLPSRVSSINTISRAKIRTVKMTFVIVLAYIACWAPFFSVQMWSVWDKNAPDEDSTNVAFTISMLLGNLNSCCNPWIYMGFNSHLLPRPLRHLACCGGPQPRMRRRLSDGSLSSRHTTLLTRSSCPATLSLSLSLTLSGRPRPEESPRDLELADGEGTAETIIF
Chain of Paired box protein Pax-8 (Q06710 whole entry): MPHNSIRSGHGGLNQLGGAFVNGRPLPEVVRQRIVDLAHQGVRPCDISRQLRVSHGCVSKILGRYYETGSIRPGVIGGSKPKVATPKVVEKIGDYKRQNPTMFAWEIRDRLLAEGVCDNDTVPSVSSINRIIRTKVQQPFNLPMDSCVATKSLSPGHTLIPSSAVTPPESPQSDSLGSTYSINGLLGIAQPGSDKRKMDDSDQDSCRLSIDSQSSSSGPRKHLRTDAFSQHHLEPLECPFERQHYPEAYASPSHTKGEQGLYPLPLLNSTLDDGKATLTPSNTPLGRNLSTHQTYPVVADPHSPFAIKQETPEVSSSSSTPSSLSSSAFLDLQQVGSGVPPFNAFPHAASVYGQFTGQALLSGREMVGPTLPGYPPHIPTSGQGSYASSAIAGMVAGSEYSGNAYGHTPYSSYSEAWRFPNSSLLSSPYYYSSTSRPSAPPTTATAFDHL
Chain of CAAX prenyl protease 2 (Q03530 whole entry): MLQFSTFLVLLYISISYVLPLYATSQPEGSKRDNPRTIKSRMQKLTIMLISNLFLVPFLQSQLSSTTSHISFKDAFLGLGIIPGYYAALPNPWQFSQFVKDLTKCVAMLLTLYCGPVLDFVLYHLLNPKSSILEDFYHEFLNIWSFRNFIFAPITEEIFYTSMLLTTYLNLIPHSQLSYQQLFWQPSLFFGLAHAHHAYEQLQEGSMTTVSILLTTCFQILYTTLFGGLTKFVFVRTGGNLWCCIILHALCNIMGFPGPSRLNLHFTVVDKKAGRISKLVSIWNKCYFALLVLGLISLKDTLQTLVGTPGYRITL
Chain of Metabotropic glutamate receptor 5 (P31424 whole entry): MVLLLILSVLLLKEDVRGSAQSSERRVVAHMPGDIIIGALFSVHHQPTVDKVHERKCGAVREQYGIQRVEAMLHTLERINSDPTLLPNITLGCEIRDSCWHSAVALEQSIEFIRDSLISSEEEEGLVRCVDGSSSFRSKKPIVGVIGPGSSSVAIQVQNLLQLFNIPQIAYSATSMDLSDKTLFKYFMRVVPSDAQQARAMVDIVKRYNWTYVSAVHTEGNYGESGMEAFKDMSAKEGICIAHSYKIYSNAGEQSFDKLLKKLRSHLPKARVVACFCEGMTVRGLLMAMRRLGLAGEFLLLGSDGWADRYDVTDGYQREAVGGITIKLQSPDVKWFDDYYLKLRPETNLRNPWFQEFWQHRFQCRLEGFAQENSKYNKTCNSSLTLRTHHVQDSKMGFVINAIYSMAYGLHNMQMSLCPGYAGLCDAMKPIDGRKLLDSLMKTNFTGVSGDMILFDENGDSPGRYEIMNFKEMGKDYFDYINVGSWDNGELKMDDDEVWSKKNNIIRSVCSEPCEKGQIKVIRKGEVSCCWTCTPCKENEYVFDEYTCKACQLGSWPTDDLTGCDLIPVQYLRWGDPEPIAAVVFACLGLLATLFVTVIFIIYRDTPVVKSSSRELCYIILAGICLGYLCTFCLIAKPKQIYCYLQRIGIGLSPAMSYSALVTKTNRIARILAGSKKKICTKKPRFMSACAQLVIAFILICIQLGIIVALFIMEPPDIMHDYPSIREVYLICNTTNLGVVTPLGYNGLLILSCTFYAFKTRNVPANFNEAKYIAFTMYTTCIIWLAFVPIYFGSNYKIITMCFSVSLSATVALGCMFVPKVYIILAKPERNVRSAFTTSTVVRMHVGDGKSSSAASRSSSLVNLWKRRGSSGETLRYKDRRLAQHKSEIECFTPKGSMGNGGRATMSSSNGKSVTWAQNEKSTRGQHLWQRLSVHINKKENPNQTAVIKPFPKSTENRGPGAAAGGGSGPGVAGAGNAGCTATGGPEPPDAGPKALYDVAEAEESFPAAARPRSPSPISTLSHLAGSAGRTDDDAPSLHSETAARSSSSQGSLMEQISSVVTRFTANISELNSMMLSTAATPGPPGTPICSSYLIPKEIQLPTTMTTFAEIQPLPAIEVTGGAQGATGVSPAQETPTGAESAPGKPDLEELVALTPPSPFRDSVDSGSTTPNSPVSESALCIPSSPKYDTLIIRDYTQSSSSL
Chain of Vasopressin V2 receptor (P30518 whole entry): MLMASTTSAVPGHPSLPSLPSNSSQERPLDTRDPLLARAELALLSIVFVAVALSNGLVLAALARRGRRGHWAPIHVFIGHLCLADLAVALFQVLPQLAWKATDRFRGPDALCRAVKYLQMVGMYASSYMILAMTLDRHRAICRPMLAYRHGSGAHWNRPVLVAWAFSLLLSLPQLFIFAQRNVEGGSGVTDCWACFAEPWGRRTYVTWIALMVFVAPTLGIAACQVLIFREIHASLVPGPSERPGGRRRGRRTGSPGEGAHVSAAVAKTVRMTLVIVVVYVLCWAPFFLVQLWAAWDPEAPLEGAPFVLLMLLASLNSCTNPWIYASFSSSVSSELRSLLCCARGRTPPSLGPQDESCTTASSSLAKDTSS
Chain of Tyrosyl-DNA phosphodiesterase 2 (O95551 whole entry): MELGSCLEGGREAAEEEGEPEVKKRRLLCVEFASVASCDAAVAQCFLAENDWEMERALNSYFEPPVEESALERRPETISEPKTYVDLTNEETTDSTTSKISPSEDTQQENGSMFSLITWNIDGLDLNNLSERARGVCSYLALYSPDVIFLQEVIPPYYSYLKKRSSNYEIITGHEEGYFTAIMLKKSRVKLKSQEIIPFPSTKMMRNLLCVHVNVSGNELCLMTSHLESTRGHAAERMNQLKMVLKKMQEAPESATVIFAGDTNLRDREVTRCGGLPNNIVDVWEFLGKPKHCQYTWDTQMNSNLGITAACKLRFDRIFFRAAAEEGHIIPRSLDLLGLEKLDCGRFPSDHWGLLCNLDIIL

N#Cc1c(N)nc(N)nc1Nc1ccc(Br)cc1
EC50 [1]: > 67.4 µM (inactive)

Cc1cc(C)c(C#N)c(N2CCN(c3ccccc3)CC2)n1
AC50 [2]: > 52 µM (inactive)

CCCCCCSc1cc(-c2nc3cc(C)ccn3c2NCCCC)ccc1OC
AC50 (cells [3]): 45.7 µM (active) | AC50 (cells [4]): 45.6 µM (active) | AC50 [5]: 7.54 µM (active) | AC50 [6]: 30.3 µM (active) | AC50 (CAAX prenyl protease 2): 19.8 µM (active)

C[C@@H]1CN([C@H](C)CO)S(=O)(=O)c2ccc(C#Cc3ccncc3)cc2O[C@@H]1CN(C)C(=O)Nc1ccc2c(c1)OCO2
AC50 [7]: 4.77 µM (active) | AC50 [8]: 29.8 µM (active)

C[C@H](CO)N1C[C@H](C)[C@@H](CN(C)CC2CCCCC2)Oc2c(NC(=O)CCCCCC(=O)Nc3ccccc3N)cccc2C1=O
AC50 [9]: 46.8 µM (active) | AC50 (Paired box protein Pax-8): 11.1 µM (active)

CS(=O)(=O)N(CC(=O)NC1CCC1)c1cc(C(F)(F)F)ccc1Cl
EC50 [10]: 1.39 µM

O=C1C(=O)N(CCOc2ccc(C(F)(F)F)cc2)c2ccc(OC(F)(F)F)cc21
EC50 [11]: 0.36 µM (active)

CC(NC(=O)c1coc(=O)c(Br)c1)C1C2CCC3CC(C2)CC31 (stereo not given)
IC50 [12]: 8.3 µM (active) | IC50 [13]: 1.8 µM (active)

COc1ccc(N(CC2CC2)C(=O)N2CCN(c3cc(Cl)ccc3C)CC2)cc1
IC50 [14]: 0.25 µM (active) | IC50 (Vasopressin V2 receptor): 11.3 µM (inactive) | IC50 (Vasopressin V1b receptor): 16.6 µM (inactive) | IC50 [15]: 0.0363 µM (active)

C[C@H](CO)N1C[C@H](C)[C@@H](CN(C)C(=O)C2CCCCC2)OCCCC[C@H](C)Oc2ccc(NC(=O)Nc3ccc(F)cc3)cc2C1=O
AC50 [16]: > 30 µM (inactive)

CCN(CC)CCCNC1=C(Nc2ccccc2)C(=O)c2ccccc2C1=O
AC50 [17]: 65 µM (active) | AC50 [18]: 31 µM (active)

Nc1ccccc1NC(=O)c1ccccc1
EC50 (cells [19]): > 350 µM (not active) | EC50 (cells [20]): 13.8 µM (active) | AC50 [21]: 17.5 µM (active)

O=C(O)c1ccc(NC2=C(n3nnc4ccccc43)C(=O)c3ccccc3C2=O)cc1
IC50 [22]: 7.8 µM (active) | EC50 (Protein RecA): 3 µM (active) | AC50 [23]: 4.36 µM (active) | IC50 [24]: 40.1 µM (inactive) | IC50 [25]: 11.6 µM (inactive)
